The values below come from ChEMBL document CHEMBL4680259, “Discovery of bazedoxifene analogues targeting glycoprotein 130” (Eur J Med Chem, 2020).

The target in data set [1] is T1, Interleukin-6 receptor subunit beta (Homo sapiens) (UniProt P40189).
T1 sequence (whole entry): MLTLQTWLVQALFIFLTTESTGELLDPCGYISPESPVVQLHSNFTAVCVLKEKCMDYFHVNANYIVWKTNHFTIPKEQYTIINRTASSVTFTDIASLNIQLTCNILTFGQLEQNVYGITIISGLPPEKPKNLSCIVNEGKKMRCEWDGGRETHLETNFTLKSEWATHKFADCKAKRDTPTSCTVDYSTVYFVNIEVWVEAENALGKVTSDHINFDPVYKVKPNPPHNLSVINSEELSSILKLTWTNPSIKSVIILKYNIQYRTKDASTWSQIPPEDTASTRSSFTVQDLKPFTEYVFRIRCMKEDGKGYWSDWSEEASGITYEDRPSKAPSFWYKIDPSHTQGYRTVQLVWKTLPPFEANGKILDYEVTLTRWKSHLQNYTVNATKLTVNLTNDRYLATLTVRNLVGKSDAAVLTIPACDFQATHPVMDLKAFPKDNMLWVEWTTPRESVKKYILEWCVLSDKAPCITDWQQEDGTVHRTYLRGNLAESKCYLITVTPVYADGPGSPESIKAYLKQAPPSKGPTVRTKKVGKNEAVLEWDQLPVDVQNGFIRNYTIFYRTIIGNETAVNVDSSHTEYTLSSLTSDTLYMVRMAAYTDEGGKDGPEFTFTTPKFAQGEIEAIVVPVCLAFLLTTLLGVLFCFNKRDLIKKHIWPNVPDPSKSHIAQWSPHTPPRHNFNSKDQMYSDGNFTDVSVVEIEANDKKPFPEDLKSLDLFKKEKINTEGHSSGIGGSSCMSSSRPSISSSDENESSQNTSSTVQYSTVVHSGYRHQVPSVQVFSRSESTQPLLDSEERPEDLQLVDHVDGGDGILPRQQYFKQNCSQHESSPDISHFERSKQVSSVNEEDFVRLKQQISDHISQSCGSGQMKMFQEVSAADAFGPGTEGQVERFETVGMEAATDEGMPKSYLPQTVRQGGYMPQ
Description: Inhibition of GP130 in human A549 cells assessed as reduction in STAT3 dimer DNA binding activity in nuclear extract in presence of hSIE probe at 3 to 9 uM after 24 hrs by EMSA analysis. The following applies: Nucleus, dose 3-9 µM. It is filed as subcellular.

Data set [2] can be described thus: Half life in rat at 5 mg/kg, ig. To be noted: in vivo, po. The class given is ADME, organism-based.
Data set [3] relates to A549. Description: Induction of apoptosis in human A549 cells assessed as viable cells at 6 uM incubated for 24 hrs by annexin V-FITC and propidium iodide staining based flow cytometry analysis (reference value: 97.7 %). It is filed as functional. To be noted: read-out: Activity. Background: Flow cytometry measures light scatter and fluorescence of single cells or particles in a stream.

As usually defined, the half-life is the time needed for the level to fall by half in the phase considered. Low readings indicate rapid decline, high ones slow decline.

Each structure is given as a SMILES string. Active and inactive are the calls of the source.

Take `NC(=O)N1N=C(c2ccc(C(F)(F)F)cc2)CC1c1cn(Cc2ccc(OCCN3CCCCCC3)cc2)c2ccc(Br)cc12` (stereo not drawn): the inhibition entry in data set [1] is “Active”. This compound had a half-life in data set [2] of 9.8 h. In addition, the viability at 6 µM in data set [3] is 91.5%.
